Consider 1 compound from paper PMC6934184, “Selective DNA-PKcs inhibition extends the therapeutic index of localized radiotherapy and chemotherapy” (The Journal of Clinical Investigation, 2019).

SMILES strings stand for the structures.

The experiment deals with T1, ICK (Homo sapiens, UniProt Q9UPZ9).
T1 construct: purchased Thermo Fisher Scientific (Life Technologies) SelectScreen
Put plainly: SelectScreen LanthaScreen. The class given is binding. Conditions: read-out: % displacement. Summed up: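 Percent values come from Thermo SelectScreen profiling of NU5455, combining activity and binding assays. CSF1R was run in Z'LYTE format at Km app ATP, and CAMK1 in Adapta format with ATP listed at 10.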

T1 sequence (Q9UPZ9 whole entry): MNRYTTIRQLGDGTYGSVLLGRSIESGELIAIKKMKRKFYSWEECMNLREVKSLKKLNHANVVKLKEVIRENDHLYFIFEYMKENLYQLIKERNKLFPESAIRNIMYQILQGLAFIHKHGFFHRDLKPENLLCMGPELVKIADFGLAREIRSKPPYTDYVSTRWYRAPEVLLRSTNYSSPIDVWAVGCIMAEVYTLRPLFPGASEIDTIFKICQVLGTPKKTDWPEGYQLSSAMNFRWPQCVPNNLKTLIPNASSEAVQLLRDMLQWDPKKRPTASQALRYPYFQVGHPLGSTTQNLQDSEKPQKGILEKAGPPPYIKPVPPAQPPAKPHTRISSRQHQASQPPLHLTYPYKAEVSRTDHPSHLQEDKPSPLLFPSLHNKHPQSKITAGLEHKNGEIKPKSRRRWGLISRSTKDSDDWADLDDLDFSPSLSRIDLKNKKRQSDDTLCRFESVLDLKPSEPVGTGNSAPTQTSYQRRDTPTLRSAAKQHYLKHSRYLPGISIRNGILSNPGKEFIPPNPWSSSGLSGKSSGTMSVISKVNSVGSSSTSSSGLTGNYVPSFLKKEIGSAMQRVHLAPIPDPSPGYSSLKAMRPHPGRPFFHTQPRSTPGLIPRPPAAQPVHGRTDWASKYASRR

For the compound `CN(C(=O)CN1CCOCC1)c1ccc2sc3c(-c4cccc5c(=O)cc(N6CC7CCC(C6)O7)oc45)cccc3c2c1` [NU5455], the inhibition at 1 µM was 0%.
